Values quoted from earlier work, collected in patent US20050053658A1, “Extended release systems for macrolide antibiotics” (priority 2003, published 2005).

In the case of `CC[C@H]1OC(=O)[C@H](C)[C@@H](O[C@H]2C[C@@](C)(OC)[C@@H](O)[C@H](C)O2)[C@H](C)[C@@H](O[C@@H]2O[C@H](C)C[C@H](N(C)C)[C@H]2O)[C@](C)(OC)C[C@@H](C)C(=O)[C@H](C)[C@@H](O)[C@]1(C)O` [Clarithromycin], the water solubility is given as “poorly water soluble”.
